Measurements as given in publication PMC6130872, “Plasmodium vivax Pv12 B-cell epitopes and HLA-DRβ1*-dependent T-cell epitopes in vitro antigenicity” (PLoS ONE, 2018).
pIC50: −log10 of the molar value. No end group written: not given here.

What was measured:
HLA-DRβ1*0401 = molecular target: T1, HLA-DRβ1*0401 (Homo sapiens, UniProt P01903+P01911, A100K/A169T/F76Y/I96L/K127E/L162R/M171V/N62H/P40V/Q125Y/R42H/S133A/S149N/S66Y/V115G/V209L/W38E); assay: In vitro HLA-DRβ1 binding assay (competitive ELISA, biotinylated control peptide displacement); details: for inhibition at 250 µM: 24 h, read-out: Binding percentage; for pIC50: DRβ1*0401, 50% displacement of biotinylated HA, 4.2 to 250 μM serial dilutions, second order exponential decay fit
T1 construct: endogenous in cells; host or cells: IHW09025 homozygous lymphoblastoid B-cell line (IHWG)

HLA-DRβ1*0701 = HLA-DRβ1*0701 (Homo sapiens, UniProt P01903+P01911, A100R/A102G/A103Q/D57E/D86V/E43K/F76Y/K127E/L162R/M171V/P40G/Q125H/Q99D/R33Q/R42Y/R54Q/S133A/S66F/T210M/V115G/Y107V/Y59L/Y89S); assay: biochemical; type: binding; details: for inhibition at 250 µM: 24 h, read-out: Binding percentage; for pIC50: 50% displacement of biotinylated TT, 4.2 to 250 μM serial dilutions, second order exponential decay fit
HLA-DRβ1*1101 = molecular target: T2, HLA-DRβ1*1101 (Homo sapiens, UniProt P01903+P01911, A100R/A169T/A87E/I96F/K41T/L162R/M171V/P40S/Q125H/Q178H/Q39Y/Q99D/R42S/S66Y/T262R/V115G/W38E); assay: biochemical; type: binding; details: for inhibition at 250 µM: 24 h, read-out: Binding percentage; for pIC50: DRβ1*1101, 50% displacement of biotinylated HA, 4.2 to 250 μM serial dilutions, second order exponential decay fit
T2 construct: endogenous in cells; host or cells: IHW09043 homozygous lymphoblastoid B-cell line (IHWG)
T2 sequence (P01903 26-254, other chains not shown): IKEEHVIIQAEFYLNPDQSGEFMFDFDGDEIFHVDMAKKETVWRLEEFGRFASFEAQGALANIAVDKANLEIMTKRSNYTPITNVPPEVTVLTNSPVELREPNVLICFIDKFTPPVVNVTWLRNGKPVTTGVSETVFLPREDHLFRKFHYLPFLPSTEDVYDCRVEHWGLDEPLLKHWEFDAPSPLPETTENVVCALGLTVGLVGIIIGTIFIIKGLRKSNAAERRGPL

HLA-DRβ1*1302 = HLA-DRβ1*1302 (Homo sapiens, UniProt P01903+P01911, A100E/A169T/K41T/L162R/M171V/P40S/Q125H/Q178H/Q39Y/Q99D/R42S/S66N/T262R/V115G/W38E/Y61H); assay: biochemical; type: binding; details: for inhibition at 250 µM: 24 h, read-out: Binding percentage; for pIC50: 50% displacement of biotinylated TT, 4.2 to 250 μM serial dilutions, second order exponential decay fit
HLA-DRβ1*1302, sequence (P01903 26-254 limits assumed, other chains not shown): as the sequence (P01903 26-254, other chains not shown) above

[1] = tested on: CD4+ T-lymphocytes (PBMCs); assay: Lymphoproliferation assay (CFSE, flow cytometry); type: cell-based, human
Method: P. vivax-exposed individuals and control group PB samples were taken and placed in citrate phosphate dextrose (CPD) solution in Vacutainer tubes (BD Vacutainer); 40 mL blood was used to obtain PBMCs from gradient centrifugation with Ficoll-Paque PLUS (GE Healthcare) to evaluate the proliferative response against Pv12 peptides.
Two hundred thousand (2 x 10^5) PBMCs per well were seeded in 96-well round-bottomed plates (Costar, Corning Incorporated) in RPMI 1640 medium (Gibco) supplemented with inactivated 10% autologous plasma, 2 g/L sodium bicarbonate, 2 mM L-glutamine, 1 mM sodium pyruvate and100 U/mL Antibiotic-Antimycotic solution (all Gibco). The PBMCs were labelled with carboxyfluorescein diacetate N-succinimidyl ester (CFSE) (5μM) (CellTrace CFSE cell proliferation kit, Molecular Probes, Eugene, OR, USA) and stimulated with each peptide at 10 μg/mL final concentration.
Control PBMCs were stimulated with 5 μg/mL parasite lysate and 2% phytohaemagglutinin (PHA) (Sigma) as positive controls. Low binding peptide (LBP) 39115 was used as negative control in experimental binding assays and a well containing PBMCs with just medium (unstimulated) was used as assay control. The cells were cultured at 37°C in a 5% CO2 atmosphere for 96 hours; assays were carried out in duplicate. Pacific Blue-labelled mouse anti-human CD4 (RPA-T4 clone) (BD Biosciences) antibody was then used for labelling the cells which were read on a FACS Canto II flow cytometer (BD Biosciences). FlowJo software v7.6.5 (FlowJo, LLC) was used for analysing the data and CD4^+ T-lymphocyte proliferation.
Cell proliferation was calculated by relative loss regarding CFSE fluorescence intensity, calculated as the percentage of fluorescence intensity of cells co-cultured with antigen divided by the percentage of co-cultured cells’ fluorescence intensity in the absence of antigen. The results were expressed as stimulation index (SI); a ≥2 value was considered positive.
CD4+ lymphocyte mean fluorescence intensity (MFI) values were used for additional analysis. Cell proliferation was calculated as the stimulation rate, where the unstimulated CD4+ T-cell population MFI was divided by the stimulated CD4+ T-cell population’s MFI. MFI becomes less as the antigen stimulates CD4+ T-lymphocytes, whereby ≥1 values indicate cell proliferation. The relative value of proliferation was considered positive, with at least 1% loss in the mean intensity of florescence of the CD4+ population, i.e. ≥1.01.

[2] = 0.1 μM purified molecule, 5 μM biotinylated TT, 250 μM test peptide, 24 h RT, OD 405 nm

Substance	inhibition at 250 µM (HLA-DRβ1*0401) [%]	pIC50 (HLA-DRβ1*0401)	inhibition at 250 µM (HLA-DRβ1*0701; [2]) [%]	inhibition at 250 µM (HLA-DRβ1*1101) [%]	pIC50 (HLA-DRβ1*1101)	inhibition at 250 µM (HLA-DRβ1*1302; [2]) [%]	pIC50 (HLA-DRβ1*0701)	pIC50 (HLA-DRβ1*1302)	other results
KRLVAHFEFATTPDD [Peptide 39122]	80.9	4.23	23.1	74.9	3.77	71.1	–	–	–
phytohaemagglutinin [PHA, reference compound]	–	–	–	–	–	–	–	–	control group individuals responding ([1]; control group): 100%; frequency of response (responders, SI ≥2) ([1]; exposed individuals): 96.6%
YNKIFYARVPQRIYQ [Peptide 39114]	–	4.36	–	–	5.08	≥ 50	4.37	4.13	–
LGIIEVLIPSLPKKI [Peptide 39117]	33.1	–	98.6	51.1	3.87	95.4	4.94	5.18	–
EECFLQGFNLSGKKE [Peptide 39113]	95.8	5.13	8.89	62.9	4.41	9.28	–	–	–
RKNYELLPNNCFEQV [Peptide 39112]	95.8	5.14	76.4	55.4	–	14.1	4.53	–	–
LTDLVMDHYNKIFYA [Peptide 39120]	26.7	–	40.6	32.7	–	86	–	4.42	–
LVEYLHGAAAIVKRK [Peptide 39118]	13.5	–	90	48.2	–	31.7	4.82	–	–
GCDFTKNTSPLFTKG [Peptide 39119]	17.4	–	29.4	26.9	–	92.2	–	5.13	–
KKSYDDVSFRVPPNL [Peptide 39115]	–	–	–	–	–	–	–	–	Binding percentage (HLA-DRβ1*0401): 12.98%; Binding percentage (HLA-DRβ1*0701; [2]): 9.86%; Binding percentage (HLA-DRβ1*1101): 20.02%; Binding percentage (HLA-DRβ1*1302; [2]): 12.00%; control group response (responders/8) ([1]; control group, n = 8): 0/8; frequency of response (responders, SI ≥2) ([1]; exposed individuals): 28%; stimulation index (SI), average response ([1]; exposed individuals, peptide 10 μg/mL, lysate 5 μg/mL, 96 h, CFSE, SI ≥2 positive): 2.018; responders according to relative proliferation values (MFI) ([1]; exposed individuals, positive ≥1.01): 50%
